Results on four substances are retold here after patent publication US7803930B2, “Antisense modulation of apolipoprotein B-expression” (Isis Pharmaceuticals, Inc., priority 2002, dated 2010).

In the oligonucleotide strings, read from the 5' end, every base follows the letter of its sugar. An asterisk marks phosphorothioate; unmarked linkages are phosphodiester. Other units and linkages are bracketed, terminal groups are in braces. A string of capitals states the bases alone. e = 2'-O-(2-methoxyethyl) (MOE); [5mC] = 5-methylcytosine; d = 2'-deoxy (DNA)

A short description of data set [1]: Time course at two doses in female C57BL/6 mice (Example 49): AST and ALT levels. Format: in vivo, mouse. On the procedure: Female C57BL/6 mice were divided into two groups—one group receiving oligonucleotide treatment and control animals receiving saline treatment. After overnight fasting, mice were dosed intraperitoneally twice a week with saline or 25 mg/kg or 50 mg/kg of ISIS 281625 (SEQ ID NO: 224), ISIS 301012 (SEQ ID NO: 247), or ISIS 301027 (SEQ ID NO: 262). After 2 weeks, a blood sample was taken from the tail of the mice and evaluated for liver enzyme. After 4 weeks, and study termination, animals were sacrificed and evaluated for liver enzyme levels.

Data set [2] relates to apolipoprotein B protein. The experiment in a line: Apolipoprotein B protein secreted from primary Cynomolgous monkey hepatocytes, ELISA.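 For % Reduction in secreted apolipoprotein B protein: normalized to untreated control cells.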 It is filed as cell-based. The note with it: for % Reduction of monkey apolipoprotein B protein secretion: primary Cynomolgous hepatocytes; for % Reduction in secreted apolipoprotein B protein: primary Cynomolgous monkey hepatocytes. The essentials:
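Primary cynomolgus hepatocytes treated with oligonucleotide at 150 and 300 nM, or 50 and 150 nM for some compounds; secreted apoB protein quantified by apoB-specific ELISA. Values are means of 3 experiments.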
A general note: An ELISA detects its analyte on a solid surface through an enzyme-linked reagent.

For data set [3], the system named is human apolipoprotein(a) mRNA. The data set can be described thus: Apolipoprotein(a) mRNA expression in primary human hepatocytes, real-time PCR. Conditions: 24 hours; for % Change in apolipoprotein(a) mRNA expression following antisense inhibition of apolipoprotein B: primary human hepatocytes. It is filed as cell-based. As for the experimental part:
Primary human hepatocytes (InVitro Technologies, Baltimore, Md.), cultured and transfected as described herein, were treated with 5, 10, 50 or 150 nM of ISIS 271009 (SEQ ID NO: 319), 281625 (SEQ ID NO: 224), 301012 (SEQ ID NO: 247) or 301027 (SEQ ID NO: 262). Cells were also treated with 50 or 150 nM of the control oligonucleotides ISIS 113529 (SEQ ID NO: 859) or ISIS 13650 (SEQ ID NO: 806). Untreated cells served as a control. Following 24 hours of oligonucleotide treatment, apolipoprotein(a) mRNA expression was measured by quantitative real-time PCR as described in other examples herein.
Probes and primers to human apolipoprotein(a) were designed to hybridize to a human apolipoprotein(a) sequence, using published sequence information (GenBank accession number NM_005577.1, incorporated herein as SEQ ID NO: 860). For human apolipoprotein(a) the PCR primers were: […]
forward primer: […] (SEQ ID NO: 861)
reverse primer: TGCGTCTGAGCATTGCGT (SEQ ID NO: 862) and the PCR probe was: FAM-[…]-TAMRA (SEQ ID NO: 863) where FAM is the fluorescent dye and TAMRA is the quencher dye.
Data are the average of three experiments and are expressed as percent inhibition relative to untreated controls.
(Real-time PCR tracks product formation cycle by cycle.)

The test system of data set [4] is Cynomolgous monkey apolipoprotein B mRNA. The data set can be described thus: Apolipoprotein B mRNA in primary Cynomolgous monkey hepatocytes, real-time PCR. It is filed as cell-based. Conditions: for % Inhibition of apolipoprotein B mRNA: primary Cynomolgous monkey hepatocytes. The essentials: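 Primary cynomolgus hepatocytes treated with antisense oligonucleotides at 10, 50, 150 or 300 nM (some sets 10–150 nM) for 24 or 48 h, depending on the set. mRNA quantified by real-time PCR using human apoB and GAPDH primers/probes. Values are percent inhibition normalized to untreated cells, averaged over 2–6 experiments.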

Setting [5] is: 25 mg/kg i.p. twice a week, 2 weeks.
Where [6] appears, read: 25 mg/kg i.p. twice a week, 4 weeks.
The mark [7] stands for this setting: 50 mg/kg i.p. twice a week, 2 weeks.
The mark [8] stands for this setting: 50 mg/kg i.p. twice a week, 4 weeks.
Where [9] appears, read: 50 nM (Table 49), "+" = secretion increased.
[10] abbreviates: 150 nM (Table 49), "+" = secretion increased.

In the case of “301027 (eG*e[5mC]*eT*e[5mC]*eA*d[5mC]*dT*dG*dT*dA*dT*dG*dG*dT*dT*eT*eT*eA*eT*e[5mC]; antisense) [compound 301027]”, the ALT in data set [1] (setting [5]) worked out at 27.2 IU/L; in data set [1] (setting [6]), 311.2 IU/L; in data set [1] (setting [7]), 34.8 IU/L; in data set [1] (setting [8]), 1194 IU/L. In addition, the AST in data set [1] (setting [5]) was determined as 55.4 IU/L; in data set [1] (setting [6]) it was 537.6 IU/L; in data set [1] (setting [7]), 64 IU/L; in data set [1] (setting [8]), 1884 IU/L. In addition, the “% Reduction of monkey apolipoprotein B protein secretion” value in data set [2] (setting [9]) was found to be 25%; in data set [2] (setting [10]), 31%. The “% Change in apolipoprotein(a) mRNA expression following antisense inhibition of apolipoprotein B” value is given as −16% in data set [3] (5 nM), −45% in data set [3] (10 nM), −39% in data set [3] (50 nM) and −43% in data set [3] (150 nM). The “% Inhibition of apolipoprotein B mRNA” value in data set [4] (10 nM, 24 hours (Table 48)) is on record as 40%; in data set [4] (50 nM, 24 hours (Table 48)), 54%; in data set [4] (150 nM, 24 hours (Table 48)), 67%.

Consider “ISIS 301027: SEQ ID NO: 262, 2′-MOE gapmer targeted to human apolipoprotein B (antisense eG*e[5mC]*eT*e[5mC]*eA*d[5mC]*dT*dG*dT*dA*dT*dG*dG*dT*dT*eT*eT*eA*eT*e[5mC])”, for which the “AST and ALT levels” value in data set [1] (25 or 50 mg/kg (either dose) i.p. twice a week, after 2 weeks) was “small increase”; in data set [1] (either dose, after 4 weeks), “huge increase”. Also, the “expression of apolipoprotein(a) mRNA” value in data set [3] (human primary hepatocytes, 5, 10, 50 or 150 nM) is “decreased”. Further, the “inhibition of apolipoprotein B mRNA expression” value in data set [4] (Cynomolgous monkey primary hepatocytes, 10, 50 and 150 nM, 24 hours) was “in a dose-dependent manner”.

Consider “113529 (antisense e[5mC]*eT*e[5mC]*eT*eT*dA*d[5mC]*dT*dG*dT*dG*d[5mC]*dT*dG*dT*eG*eG*eA*e[5mC]*eA) [compound 113529]”, for which the “% Reduction of monkey apolipoprotein B protein secretion” value in data set [2] (150 nM (Table 47)) is reported as 12%; in data set [2] (setting [10]), 15%. In addition, the “% Reduction in secreted apolipoprotein B protein” value is recorded as 11% in data set [2] (150 nM, 24 hours); 18% in data set [2] (150 nM, 48 hours); 12% in data set [2] (300 nM, 24 hours); 8% in data set [2] (300 nM, 48 hours). Besides, the “% Change in apolipoprotein(a) mRNA expression following antisense inhibition of apolipoprotein B” value in data set [3] (50 nM) was “+14%”; in data set [3] (150 nM), −9%. The “% Inhibition of apolipoprotein B mRNA” value in data set [4] (150 nM, 24 hours) was 5%; in data set [4] (150 nM, 24 hours (Table 48)), 11%; in data set [4] (150 nM, 48 hours), 42%; in data set [4] (300 nM, 24 hours), 19%; in data set [4] (300 nM, 24 hours (Table 46)) it was 28%; in data set [4] (300 nM, 48 hours) it was 13%.

On to “271009 (antisense eG*e[5mC]*e[5mC]*eT*e[5mC]*dA*dG*dT*d[5mC]*dT*dG*d[5mC]*dT*dT*d[5mC]*eG*e[5mC]*eG*e[5mC]*e[5mC]) [compound 271009]”, for which the figures for the “% Reduction of monkey apolipoprotein B protein secretion” value in data set [2] (setting [9]) and in data set [2] (setting [10]) were “+30%” and 26%, respectively. Besides, the “% Change in apolipoprotein(a) mRNA expression following antisense inhibition of apolipoprotein B” value in data set [3] (5 nM) is given as “+70%”; in data set [3] (10 nM) it was “+31%”; in data set [3] (50 nM), “+25%”; in data set [3] (150 nM) it was −47%. Moreover, the “% Inhibition of apolipoprotein B mRNA” value in data set [4] (10 nM, 24 hours (Table 48)) is listed as 42%; in data set [4] (50 nM, 24 hours (Table 48)) it was 66%; in data set [4] (150 nM, 24 hours (Table 48)), 69%.
